Molecules are shown by their SMILES. Calls of active or inactive are those of the source.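 Rule for the calls: active = plate Z score at or below -3, or inhibition of at least 30% at 20 µM; inactive = the rest.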

The nature of this assay: EGFP reporter destabilization counter-screen – F442A EGFP cells, fluorescence, counter-screen for p/CIP destabilizer project, dose response (AID 2005).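 Note: cells express EGFP alone from a CMV promoter as a counter screen for p/CIP-EGFP.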 To be noted: F442A EGFP cells, EGFP fluorescence, 16 h, stronger effect = higher value.

In general, inhibition refers to the change of the read-out against control, counted positive when it falls. Regarding `CN(C)c1ccc(C(=O)Nc2cc(C(F)(F)F)ccc2-n2cncn2)cc1`, the inhibition (EGFP decrease, at 10 µM) was 5% and the inhibition (at 20 µM) was 10.4% (inactive).

As for `Cc1ccc(NC(=S)NC(NC(=O)c2ccco2)C(Cl)(Cl)Cl)cc1` (centres undefined), the inhibition is 6.3% (EGFP decrease, at 10 µM) and 31.9% (at 20 µM).

Consider `CCOC(=O)CSc1nc2ccccc2c(=O)n1CCCCCC(=O)NCc1ccco1`, for which the inhibition by setting is: (EGFP decrease, at 10 µM) 8.4%; (at 20 µM) 5.8% (inactive).

For `CC(=O)c1cccc(N2Cc3ccccc3C2=NC(=O)CCl)c1`, the inhibition reads like this: (EGFP decrease, at 10 µM) 13.9%; (at 20 µM) 7.4% (inactive).

Regarding `CCCc1nnc(NC(=O)C2CCN(C(=O)C3CC(=O)N(c4ccc(C)cc4)C3)CC2)s1` (centres undefined), the inhibition reads like this: (EGFP decrease, at 10 µM) 13.9%; (at 20 µM) 14.4% (inactive).

`COC(=O)CS(=O)(=O)c1cccc2cccnc12`: the inhibition reads like this: (EGFP decrease, at 10 µM) 38.4%; (at 20 µM) 19.7% (inactive).

For the compound `CCOC(=O)c1oc2ccccc2c1N`, the inhibition is 12.3% (EGFP decrease, at 10 µM) and 19.4% (inactive) (at 20 µM).

Take `CC(NC(=O)c1c(F)cccc1Cl)c1ccc(-n2ccnc2)cc1` (centres undefined): the inhibition (EGFP decrease, at 10 µM) is 35.7% and the inhibition (at 20 µM) was 24.4% (inactive).

Regarding `Cc1c(NC(=O)CN2C(=O)NC3(CCC(C)CC3)C2=O)c(=O)n(-c2ccccc2)n1C` (centres undefined), the inhibition (EGFP decrease, at 10 µM) turned out to be 5.2% and the inhibition (at 20 µM) is 0.8% (inactive).

As to `CC(C)OP(=O)(O)NC(=O)c1ccccc1`, the inhibition (EGFP decrease, at 10 µM) worked out at 3.6% and the inhibition (at 20 µM) was 18.5% (inactive).

Turning to `COCCC(=O)N1CCC(Oc2ccc(C(=O)N3CCCCCCC3)cc2)CC1`, the inhibition is 1.3% (EGFP decrease, at 10 µM) and 14% (inactive) (at 20 µM).

Consider `CN(Cc1ccco1)C(=O)C1CCC(=O)N(CCc2cccc(F)c2)C1` (centres undefined), for which the inhibition runs as follows: (EGFP decrease, at 10 µM) 5.1%; (at 20 µM) 1.2% (inactive).

Consider `C/C(=N\NC(=O)c1cccs1)c1c(O)cc(C)oc1=O`, for which the inhibition by setting is: (EGFP decrease, at 10 µM) 28.7%; (at 20 µM) 0.8% (inactive).

Turning to `Cc1cc(C)n(CC(O)COc2ccc(C(C)(C)C)cc2)n1` (centres undefined), the inhibition runs as follows: (EGFP decrease, at 10 µM) -4.8%; (at 20 µM) 7.7% (inactive).

Consider `Cc1cc(C(=O)Nc2cccc(C)c2C)n(-c2ccccc2)n1`, for which the inhibition is, setting by setting: (EGFP decrease, at 10 µM) -4.4%; (at 20 µM) 5.5% (inactive).

For the compound `CC(=O)N1[C@H](Cc2ccccc2)C=C[C@]1(C)C(=O)NCc1ccccn1`, the inhibition is -7.6% (EGFP decrease, at 10 µM) and 8.7% (inactive) (at 20 µM).

On to `O=C(CN(CCc1ccccc1)C(=O)CNS(=O)(=O)c1ccccc1)NCC1CCCO1` (centres undefined), for which the inhibition reads like this: (EGFP decrease, at 10 µM) 25.6%; (at 20 µM) 23.8% (inactive).

On to `COc1ccc(N2CCN(C(=O)CNS(=O)(=O)c3ccc(Br)s3)CC2)cc1`, for which the inhibition runs as follows: (EGFP decrease, at 10 µM) 31%; (at 20 µM) 28.5% (inactive).

Turning to `CCNS(=O)(=O)c1ccc(OC)c(C(=O)NC2CCCCC2)c1`, the inhibition is, setting by setting: (EGFP decrease, at 10 µM) 1.8%; (at 20 µM) 27.8% (inactive).

On to `CCN1CCN(c2cc(C)c3cc(NC(=S)N4CC(C)CC(C)C4)ccc3n2)CC1` (centres undefined), for which the inhibition (EGFP decrease, at 10 µM) is 28.8% and the inhibition (at 20 µM) was 12.7% (inactive).

For the compound `C[C@H](NC(=O)C1CCC(CNC(=O)[C@@H]2CCCN2C(=O)OC(C)(C)C)CC1)C(=O)O` (some centres undefined), the inhibition reads like this: (EGFP decrease, at 10 µM) 26.7%; (at 20 µM) 20.8% (inactive).

Consider `CCCC(=O)C1=C(N(C)c2ccccc2)CC(C)(C)CC1=O`, for which the inhibition was 24.9% (EGFP decrease, at 10 µM) and 21.6% (inactive) (at 20 µM).

As to `CCN(CC(=O)N1CCOCC1)S(=O)(=O)c1ccccc1`, the inhibition (EGFP decrease, at 10 µM) worked out at 7.2% and the inhibition (at 20 µM) is -27.6% (inactive).

With `Cc1ccc(S(=O)(=O)Oc2ccc(/C=N/NC(=O)c3nn(C)cc3Cl)cc2)cc1`, the inhibition is 17.3% (EGFP decrease, at 10 µM) and 17.2% (inactive) (at 20 µM).

In the case of `COc1ccccc1CNS(=O)(=O)c1cccc(S(=O)(=O)N2CCOCC2)c1`, the inhibition was 3.3% (EGFP decrease, at 10 µM) and 4.8% (inactive) (at 20 µM).

With `Cc1ccc(CN(Cc2ccccc2)C(=S)NCC(=O)NCc2cccnc2)o1`, the inhibition was 5.8% (EGFP decrease, at 10 µM) and 6.9% (inactive) (at 20 µM).

`COc1cc(NC(=O)c2ccccc2[N+](=O)[O-])c(C(=O)O)cc1OC`: the inhibition was 9.2% (EGFP decrease, at 10 µM) and -1.6% (inactive) (at 20 µM).

As for `Cc1ccccc1CN1CCC(CNC(=O)Nc2ccc(F)cc2F)CC1`, the inhibition (EGFP decrease, at 10 µM) stood at 25.1% and the inhibition (at 20 µM) is 20.2% (inactive).

As to `COc1cccc(/C=N/n2c(C3CCCCC3)n[nH]c2=S)c1O`, the inhibition by setting is: (EGFP decrease, at 10 µM) 1.4%; (at 20 µM) 27.7% (inactive).

Take `Cc1ccc(S(=O)(=O)CCC(=O)OCC(=O)c2c[nH]c3ccccc23)cc1`: the inhibition is, setting by setting: (EGFP decrease, at 10 µM) 10.1%; (at 20 µM) 19.8% (inactive).

Take `Cc1c(NC(=O)C(C)OC(=O)/C=C/c2ccco2)c(=O)n(-c2ccccc2)n1C` (centres undefined): the inhibition reads like this: (EGFP decrease, at 10 µM) 10.9%; (at 20 µM) -5.3% (inactive).

`O=C(Cc1ccccc1)NC(=S)Nc1cccc(C(F)(F)F)c1`: the inhibition by setting is: (EGFP decrease, at 10 µM) 14.2%; (at 20 µM) 16.8% (inactive).

`Cc1ccc(-c2nnc(CSc3nc(C)nc4sc(C)c(C)c34)o2)cc1`: the inhibition by setting is: (EGFP decrease, at 10 µM) 12.1%; (at 20 µM) 14.3% (inactive).

Take `CCN1C(=O)OC2(CCCCC2)C1(C)O` (centres undefined): the inhibition (EGFP decrease, at 10 µM) is -1.9% and the inhibition (at 20 µM) was 9% (inactive).

With `Cc1ccccc1CC(=O)Nc1sc(C(C)C)cc1C(=O)N1CCOCC1`, the inhibition is, setting by setting: (EGFP decrease, at 10 µM) 4.2%; (at 20 µM) 14.3% (inactive).

As for `Cn1nnnc1SCC(=O)c1cccs1`, the inhibition runs as follows: (EGFP decrease, at 10 µM) 11.4%; (at 20 µM) 9.9% (inactive).

`S=C(NNC(=S)Nc1ccccc1)Nc1ccccc1`: the inhibition is -6.9% (EGFP decrease, at 10 µM) and 16.7% (inactive) (at 20 µM).

Take `Cc1ccc(N2C(=O)N(CC(=O)Nc3ccc(C)cc3C)C(=O)C2C)cc1` (centres undefined): the inhibition by setting is: (EGFP decrease, at 10 µM) 28.1%; (at 20 µM) 22% (inactive).

As to `Cc1nc(NC(=O)CN2CCN(c3ccccc3F)CC2)sc1C(=O)N(C)C`, the inhibition (EGFP decrease, at 10 µM) was 17% and the inhibition (at 20 µM) is 24.4% (inactive).

`CCOc1ccc(-c2nc(-c3ccccc3)no2)cc1OCC`: the inhibition (EGFP decrease, at 10 µM) was -19.3% and the inhibition (at 20 µM) is 1.4% (inactive).

For the compound `CC(C(=O)NC1=NCCS1)N1C(=O)C2CC=CCC2C1=O` (centres undefined), the inhibition (EGFP decrease, at 10 µM) turned out to be 20.2% and the inhibition (at 20 µM) is 27.7% (inactive).

Consider `CC1CCC(NCc2ccco2)CC1` (centres undefined), for which the inhibition (EGFP decrease, at 10 µM) is -0.9% and the inhibition (at 20 µM) is 18.9% (inactive).

Consider `Cc1noc(C)c1CSc1nnc(C)c(=O)[nH]1`, for which the inhibition (EGFP decrease, at 10 µM) is -9.8% and the inhibition (at 20 µM) is -3.4% (inactive).

For `O=C(NC(=S)NCCc1ccccc1)c1ccco1`, the inhibition (EGFP decrease, at 10 µM) amounted to 9.7% and the inhibition (at 20 µM) was -5.7% (inactive).

In the case of `COc1ccc(CNCCCSc2ncccn2)c(OC)c1`, the inhibition (EGFP decrease, at 10 µM) came to 11.1% and the inhibition (at 20 µM) was 16.3% (inactive).

Turning to `COc1cccc(NC(=O)N2CCC(NC(=O)C3CCCCC3)CC2)c1`, the inhibition runs as follows: (EGFP decrease, at 10 µM) 13.5%; (at 20 µM) 8% (inactive).

Take `CCC(Cc1ccccc1)NC(=O)Cn1cccc1C(=O)c1ccccc1` (centres undefined): the inhibition is 9.1% (EGFP decrease, at 10 µM) and 15.9% (inactive) (at 20 µM).

(Values after PubChem BioAssay AID2005 (Sanford-Burnham Center for Chemical Genomics, 2009).)
